# In patent US20130109734A1 (Metabolex, Inc., priority 2010, published 2013):
# Biological target: T1, human GPR120 (Homo sapiens, UniProt Q5NUL3)
# T1 construct: host or cells: HEK293 cells co-expressing Gqi5
# T1 sequence (Q5NUL3 1-361): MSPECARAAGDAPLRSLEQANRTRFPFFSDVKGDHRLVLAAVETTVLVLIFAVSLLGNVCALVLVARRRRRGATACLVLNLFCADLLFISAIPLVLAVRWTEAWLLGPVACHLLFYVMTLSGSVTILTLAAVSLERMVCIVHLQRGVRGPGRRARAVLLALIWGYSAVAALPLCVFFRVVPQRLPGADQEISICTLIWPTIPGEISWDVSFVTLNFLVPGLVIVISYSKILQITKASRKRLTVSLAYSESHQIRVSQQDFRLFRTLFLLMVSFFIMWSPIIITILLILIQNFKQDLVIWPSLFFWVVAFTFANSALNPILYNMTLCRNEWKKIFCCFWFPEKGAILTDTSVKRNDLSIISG
# Assay: Intracellular Ca2+ assay in human GPR120 stable cell line (HEK293 co-expressing Gqi5), Flexstation
# Assay type: cell-based
# Settings: % activity at 5 μM compared to the maximal activity of GW9508 at 6.7 μM (=100%); human GPR120 cells, Ca2+ fluorescence
# In short: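 HEK293 cells stably co-expressing Gqi5 and Flag-tagged human GPR120, loaded with Calcium 4 dye in HBSS/HEPES pH 7.4 at 37 °C; compounds at eight concentrations, 0.00001–20 μM, fluorescence (485/525 nm) read 90 s. EC50 from Max−Min change; percent activity relative to GW9508 maximum at 6.7 μM.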
row,% Activity (GW9508 Reference Compound) [%],Structure (SMILES)
1,106.81,"CC1(C)Cc2cc(F)cc(COc3ccc4c(c3)CCCC4CC(=O)O)c2O1 (stereo not shown) [Example 153, 2-(6-((5-fluoro-2,2-dimethyl-2,3-dihydrobenzofuran-7-yl)methoxy)-1,2,3,4-tetrahydronaphthalen-1-yl)acetic acid]"
2,148.87,"CC1(C)Cc2cc(Cl)cc(COc3ccc(C(C)(C)CC(=O)O)cc3)c2O1 [Example 156, 3-(4-((5-chloro-2,2-dimethyl-2,3-dihydrobenzofuran-7-yl)methoxy)phenyl)-3-methylbutanoic acid]"
3,164.79,"CC(Cc1ccc(OCc2cc(Cl)cc3c2OC2(CCCC2)C3)cc1)C(=O)O (stereo not shown) [Example 159, 3-(4-((5-chloro-3H-spiro[benzofuran-2,1′-cyclopentane]-7-yl)methoxy)phenyl)-2-methylpropanoic acid]"
4,172.13,"CC1(C)Cc2cc(F)cc(COc3ccc(CCCC(=O)O)cc3)c2O1 [Example 160, 4-(4-((5-fluoro-2,2-dimethyl-2,3-dihydrobenzofuran-7-yl)methoxy)phenyl)butanoic acid]"
5,154.48,"CC(Cc1ccc(OCc2cc(F)cc3c2OC2(CCCC2)C3)cc1)C(=O)O (stereo not shown) [Example 162, 3-(4-((5-fluoro-3H-spiro[benzofuran-2,1′-cyclopentane]-7-yl)methoxy)phenyl)-2-methylpropanoic acid]"
6,158.08,"O=C(O)C1CC1c1ccc(OCc2cc(F)cc3c2OC2(CCCC2)C3)cc1 (stereo not shown) [Example 165, 2-(4-((5-fluoro-3H-spiro[benzofuran-2,1′-cyclopentane]-7-yl)methoxy)phenyl)cyclopropanecarboxylic acid]"
7,98.97,"CC(CCc1ccc(OCc2cc(F)cc3c2OC(C)(C)C3)cc1)C(=O)O (stereo not shown) [Example 171, 4-(4-((5-fluoro-2,2-dimethyl-2,3-dihydrobenzofuran-7-yl)methoxy)phenyl)-2-methylbutanoic acid]"
8,159.06,"COc1cc(CCC(=O)O)ccc1OCc1cc(F)cc2c1OC(C)(C)C2 [Example 173, 3-(4-((5-fluoro-2,2-dimethyl-2,3-dihydrobenzofuran-7-yl)methoxy)-3-methoxyphenyl)propanoic acid]"
9,152.44,"CC1(C)Cc2cc(F)cc(COc3ccc4c(c3)CC[C@H]4CC(=O)O)c2O1 [Example 175, (S)-2-(5-((5-fluoro-2,2-dimethyl-2,3-dihydrobenzofuran-7-yl)methoxy)-2,3-dihydro-1H-inden-1-yl)acetic acid]"
10,138.42,"CC1(C)Cc2cc(Cl)cc(COc3ccc4c(c3)CC[C@H]4CC(=O)O)c2O1 [Example 176, (S)-2-(5-((5-chloro-2,2-dimethyl-2,3-dihydrobenzofuran-7-yl)methoxy)-2,3-dihydro-1H-inden-1-yl)acetic acid]"
11,106,"CC1(C)Cc2cc(F)cc(COc3ccc4c(c3)CC[C@@H]4CC(=O)O)c2O1 [Example 178, (R)-2-(5-((5-fluoro-2,2-dimethyl-2,3-dihydrobenzofuran-7-yl)methoxy)-2,3-dihydro-1H-inden-1-yl)acetic acid]"
12,105.44,"CC1(C)Cc2cc(Cl)cc(COc3ccc4c(c3)CC[C@@H]4CC(=O)O)c2O1 [Example 179, (R)-2-(5-((5-chloro-2,2-dimethyl-2,3-dihydrobenzofuran-7-yl)methoxy)-2,3-dihydro-1H-inden-1-yl)acetic acid]"
13,98.43,"CC(CC(=O)O)Cc1ccc(OCc2cc(F)cc3c2OC(C)(C)C3)cc1 (stereo not shown) [Example 182, 4-(4-((5-fluoro-2,2-dimethyl-2,3-dihydrobenzofuran-7-yl)methoxy)phenyl)-3-methylbutanoic acid]"
14,104.04,"CC1(C)Cc2c(COc3ccc4c(c3)CC[C@@H]4CC(=O)O)cc(F)cc2O1 [Example 188, (R)-2-(5-((6-fluoro-2,2-dimethyl-2,3-dihydrobenzofuran-4-yl)methoxy)-2,3-dihydro-1H-inden-1-yl)acetic acid]"
15,148.21,"COc1cc(OCc2cc(Cl)cc3c2OC2(CCCC2)C3)ccc1CCC(=O)O [Example 194, 3-(4-((5-chloro-3H-spiro[benzofuran-2,1′-cyclopentane]-7-yl)methoxy)-2-methoxyphenyl)propanoic acid]"
16,151.44,"CC1(C)Cc2cc(F)cc(COc3cc(Cl)c(CCC(=O)O)c(Cl)c3)c2O1 [Example 197, 3-(2,6-dichloro-4-((5-fluoro-2,2-dimethyl-2,3-dihydrobenzofuran-7-yl)methoxy)phenyl)propanoic acid]"

row,% Activity (GW9508 Reference Compound) [%],Structure (SMILES)
1,111.45,"Cc1cc(OCc2cc(F)cc3c2OC(C)(C)C3)c(C)cc1CCC(=O)O [Example 206, 3-(4-((5-fluoro-2,2-dimethyl-2,3-dihydrobenzofuran-7-yl)methoxy)-2,5-dimethylphenyl)propanoic acid]"
2,147.47,"Cc1c(CCC(=O)O)ccc(OCc2cc(F)cc3c2OC(C)(C)C3)c1C [Example 208, 3-(4-((5-fluoro-2,2-dimethyl-2,3-dihydrobenzofuran-7-yl)methoxy)-2,3-dimethylphenyl)propanoic acid]"
3,142.22,"Cc1c(CCC(=O)O)ccc(OCc2cc(Cl)cc3c2OC(C)(C)C3)c1C [Example 209, 3-(4-((5-chloro-2,2-dimethyl-2,3-dihydrobenzofuran-7-yl)methoxy)-2,3-dimethylphenyl)propanoic acid]"
4,143.21,"Cc1cc(OCc2cc(F)cc3c2OC(C)(C)C3)c(F)cc1CCC(=O)O [Example 214, 3-(5-fluoro-4-((5-fluoro-2,2-dimethyl-2,3-dihydrobenzofuran-7-yl)methoxy)-2-methylphenyl)propanoic acid]"
5,144.23,"CCc1c(CCC(=O)O)ccc(OCc2cc(F)cc3c2OC(C)(C)C3)c1F [Example 216, 3-(2-ethyl-3-fluoro-4-((5-fluoro-2,2-dimethyl-2,3-dihydrobenzofuran-7-yl)methoxy)phenyl)propanoic acid]"
6,114.48,"CC1(C)Cc2cc(F)cc(COc3ccc(CCC(=O)O)c4c3CCCC4)c2O1 [Example 218, 3-(4-((5-fluoro-2,2-dimethyl-2,3-dihydrobenzofuran-7-yl)methoxy)-5,6,7,8-tetrahydronaphthalen-1-yl)propanoic acid]"
7,115.86,"CCc1cc(OCc2cc(F)cc3c2OC(C)(C)C3)c(F)cc1CCC(=O)O [Example 220, 3-(2-ethyl-5-fluoro-4-((5-fluoro-2,2-dimethyl-2,3-dihydrobenzofuran-7-yl)methoxy)phenyl)propanoic acid]"
8,119.11,"[2H]C([2H])(Oc1ccc(CCC(=O)O)c(CC)c1F)c1cc(F)cc2c1OC(C)(C)C2 [Example 228, 3-(4-(dideuterio(5-fluoro-2,2-dimethyl-2,3-dihydrobenzofuran-7-yl)methoxy)-3-fluoro-2-ethylphenyl)propanoic acid]"
9,86.25,"[2H]C([2H])(Oc1ccc(CC(C)C(=O)O)cc1F)c1cc(F)cc2c1OC(C)(C)C2 (stereo not shown) [Example 230, 3-(4-(dideuterio(5-fluoro-2,2-dimethyl-2,3-dihydrobenzofuran-7-yl)methoxy)-3-fluorophenyl)-2-methylpropanoic acid]"
10,101.01,"[2H]C([2H])(Oc1ccc(CC(C)C(=O)O)cc1C(F)(F)F)c1cc(F)cc2c1OC(C)(C)C2 (stereo not shown) [Example 231, 3-(4-(dideuterio(5-fluoro-2,2-dimethyl-2,3-dihydrobenzofuran-7-yl)methoxy)-3-(trifluoromethyl)phenyl)-2-methylpropanoic acid]"
11,159.62,"[2H]C([2H])(C(=O)O)C([2H])([2H])c1ccc(OCc2cc(Cl)cc3c2OC(C)(C)C3)c(F)c1 [Example 241, 3-(4-((5-chloro-2,2-dimethyl-2,3-dihydrobenzofuran-7-yl)methoxy)-3-fluorophenyl)-2,2,3,3-tetradeuteriopropanoic acid]"
12,155.23,"[2H]C([2H])(C(=O)O)C([2H])([2H])c1ccc(OCc2cc(F)cc3c2OC(C)(C)C3)c(F)c1CC [Example 243, 3-(2-ethyl-3-fluoro-4-((5-fluoro-2,2-dimethyl-2,3-dihydrobenzofuran-7-yl)methoxy)phenyl)-2,2,3,3-tetradeuteriopropanoic acid]"
13,10.23,"CC1(C)Cc2cc(Cl)cc(COc3ccccc3CCC(=O)O)c2O1 [Example 250, 3-(2-((5-chloro-2,2-dimethyl-2,3-dihydrobenzofuran-7-yl)methoxy)phenyl)propanoic acid]"
14,61.14,"CC(Cc1cccc(OCc2cc(Cl)cc3c2OC(C)(C)C3)c1)C(=O)O (stereo not shown) [Example 251, 3-(3-((5-chloro-2,2-dimethyl-2,3-dihydrobenzofuran-7-yl)methoxy)phenyl)-2-methylpropanoic acid]"
15,146.14,"Cc1cc(CCC(=O)O)c(C)c(C)c1OCc1cc(F)cc2c1OC(C)(C)C2 [Example 254, 3-(4-((5-fluoro-2,2-dimethyl-2,3-dihydrobenzofuran-7-yl)methoxy)-2,3,5-trimethylphenyl) propanoic acid]"
